Source: patent publication US4426519A, “7-(2-Amino-4-thiazolyl)-acetamido cephalosporanic acids” (Roussel Uclaf, priority 1979, dated 1984)
Values after ≈ are worked out from the molar mass of the structure shown. Structures can show the parent of a compound that is named as a salt. Where two headings read alike, the source gives them in different places.

Legend:
Assay in all cases: MIC, dilution in liquid medium
Assay type in all cases: cell-based
[1] = tested on: Staphylococcus aureus ATCC 6 538 Pen Sensitive
Description: (§1) The method used was a dilution of a liquid medium where a series of tubes received the same quantity of a sterile nutritive media and increasing doses of the test compounds were placed therein. Then each tube was seeded with a bacterial strain and was incubated for 24 to 48 hours at 37° C. in an oven. The increasing inhibition was determined by transillulumination to determine the minimum inhibiting concentration (MIC in μg/ml) and the results are reported in the following Tables.

[2] = tested on: Providencia Du 48; settings: read-out: MIC
Description: as §1

[3] = tested on: Staphylococcus aureus UC 1 128 Pen-resistant
Description: as §1

[4] = tested on: Escherichia Coli Resistant Gentamycine, Tobramycine R 55 123 D
Description: as §1

[5] = tested on: Escherichia Coli Exp. TO26 B6
Description: as §1

[6] = tested on: Escherichia Coli sensitive Tetracycline ATCC 9 637
Description: as §1

[7] = tested on: Salmonella typhimurium 420; settings: Salmonella enterica
Description: as §1

[8] = tested on: Klebsiella pneumoniae 2 536 Resistant Gentamycine
Description: as §1

[9] = tested on: Escherichia Coli Resistant Tetracycline ATCC 11 303
Description: as §1

[10] = tested on: Serratia Resistant Gentamycine 2 532
Description: as §1

[11] = tested on: Proteus mirabilis (indol-) A 235
Description: as §1

[12] = tested on: Streptococcus pyogenes A 561
Description: as §1

[13] = tested on: Staphylococcus aureus exp.n°54 146
Description: as §1

[14] = tested on: Bacillus subtilis ATCC 6 633
Description: as §1

[15] = tested on: Klebsiella pneumoniae Exp. 52 145
Description: as §1

## CC(=O)OCC1=C(C(=O)O)N2C(=O)C(NC(=O)/C(=N\OCCSC#N)c3csc(N)n3)C2SC1 (stereo not drawn) [Example 7, Syn isomer of 3-acetoxymethyl-7-[2-(2-amino-4-thiazolyl)-2-(2-thiocyanatoethoxyimino)-acetamido]-ceph-3-eme-4-carboxylic acid]
[1]; ATCC6, 24 h
  MIC: 1 µg/mL (≈ 1.9 µM)
[1]; ATCC6, 48 h
  MIC: 1 µg/mL (≈ 1.9 µM)
[2]; DU48, 24 h
  MIC: 10 µg/mL (≈ 19 µM)
[2]; DU48, 48 h
  MIC: 10 µg/mL (≈ 19 µM)
[3]; UC1, 24 h
  MIC: 1 µg/mL (≈ 1.9 µM)
[3]; UC1, 48 h
  MIC: 1 µg/mL (≈ 1.9 µM)
[4]; 24 h
  MIC: 1 µg/mL (≈ 1.9 µM)
[4]; 48 h
  MIC: 1 µg/mL (≈ 1.9 µM)
[5]; 24 h
  MIC: 2 µg/mL (≈ 3.8 µM)
[5]; 48 h
  MIC: 2 µg/mL (≈ 3.8 µM)
[6]; ATCC9, 24 h
  MIC: 5 µg/mL (≈ 9.5 µM)
[6]; ATCC9, 48 h
  MIC: 5 µg/mL (≈ 9.5 µM)
[7]; 24 h
  MIC: 1 µg/mL (≈ 1.9 µM)
[7]; 48 h
  MIC: 3 µg/mL (≈ 5.7 µM)
[8]; 24 h
  MIC: 5 µg/mL (≈ 9.5 µM)
[8]; 48 h
  MIC: 5 µg/mL (≈ 9.5 µM)
[9]; ATCC11, 24 h
  MIC: 0.2 µg/mL (≈ 0.38 µM)
[9]; ATCC11, 48 h
  MIC: 0.2 µg/mL (≈ 0.38 µM)
[10]; 24 h
  MIC: 2 µg/mL (≈ 3.8 µM)
[10]; 48 h
  MIC: 3 µg/mL (≈ 5.7 µM)
[11]; 24 h
  MIC: 0.2 µg/mL (≈ 0.38 µM)
[11]; 48 h
  MIC: 0.5 µg/mL (≈ 0.95 µM)
[12]; A561, 24 h
  MIC: 0.02 µg/mL (≈ 0.038 µM)
[12]; A561, 48 h
  MIC: 0.02 µg/mL (≈ 0.038 µM)
[13]; 24 h
  MIC: 1 µg/mL (≈ 1.9 µM)
[13]; 48 h
  MIC: 2 µg/mL (≈ 3.8 µM)
[14]; ATCC6, 24 h
  MIC: 1 µg/mL (≈ 1.9 µM)
[14]; ATCC6, 48 h
  MIC: 2 µg/mL (≈ 3.8 µM)
[15]; EXP.52145, 24 h, read-out: MIC
  MIC: 0.5 µg/mL (≈ 0.95 µM)
[15]; EXP.52145, 48 h, read-out: MIC
  MIC: 0.5 µg/mL (≈ 0.95 µM)

## CC(=O)OCC1=C(C(=O)O)N2C(=O)C(NC(=O)/C(=N\OCCSC(=N)NN)c3csc(N)n3)C2SC1 (stereo not drawn) [Example 8, Internal salt of syn isomer of 3-acetoxymethyl-7-[2-(2-amino-4-thiazolyl)-2-(2-iminohydrazinomethylthioethoxyimino)acetamido]-ceph-3-eme-4-carboxylic acid]
[1]; ATCC6, 24 h
  MIC: 1 µg/mL
[1]; ATCC6, 48 h
  MIC: 2 µg/mL
[3]; UC1, 24 h
  MIC: 2 µg/mL
[3]; UC1, 48 h
  MIC: 2 µg/mL
[4]; 24 h
  MIC: 1 µg/mL
[4]; 48 h
  MIC: 1 µg/mL
[5]; 24 h
  MIC: 1 µg/mL
[5]; 48 h
  MIC: 1 µg/mL
[6]; ATCC9, 24 h
  MIC: 2 µg/mL
[6]; ATCC9, 48 h
  MIC: 2 µg/mL
[7]; 24 h
  MIC: 1 µg/mL
[7]; 48 h
  MIC: 2 µg/mL
[8]; 24 h
  MIC: 5 µg/mL
[8]; 48 h, read-out: MIC
  MIC: 10 µg/mL
[9]; ATCC11, 24 h
  MIC: 0.5 µg/mL
[9]; ATCC11, 48 h
  MIC: 0.5 µg/mL
[10]; 24 h
  MIC: 1 µg/mL
[10]; 48 h
  MIC: 2 µg/mL
[11]; 24 h
  MIC: 0.2 µg/mL
[11]; 48 h
  MIC: 0.2 µg/mL
[12]; A561, 24 h
  MIC: 0.02 µg/mL
[12]; A561, 48 h
  MIC: 0.05 µg/mL
[13]; 24 h
  MIC: 1 µg/mL
[13]; 48 h
  MIC: 2 µg/mL
[14]; ATCC6, 24 h
  MIC: 1 µg/mL
[14]; ATCC6, 48 h
  MIC: 3 µg/mL
[15]; EXP.52145, 24 h
  MIC: 1 µg/mL
[15]; EXP.52145, 48 h
  MIC: 1 µg/mL
